The test system of one series is C. albicans 10/15. Description: Microdilution assay, MIC and MFC. Type of series: cell-based. Conditions: Candida albicans. From the text: (§1) C. albicans was isolated from oral cavities of patients at ENT Clinic, Clinical Hospital Centre Zvezdara, Belgrade, Serbia after obtaining informed written consent and identified by using CHROMagar plates (Biomerieux, Craponne, France). Strains were maintained on Sabouraud Dextrose Agar (Merck, Darmstadt, Germany) and are deposited at the Mycological Laboratory, Department of Plant Physiology, Institute for Biological Research “Siniša Stanković”, National Institute of Republic of Serbia, University of Belgrade. The collection of samples was approved by the Ethical Committee (Office for Human Research Protection, Zvezdara University Medical Center, Belgrade, Serbia, document issued 26 October 2016).
(§2) Microdilution assay with some modification was used for determination of minimum inhibitory (MIC) and minimum fungicidal concentrations (MFC). Yeast cultures were adjusted to 1.0 × 10^5 CFU/per well with sterile PBS (Phosphate buffered saline, pH 7.4). The 96-well microtiter plates with serially diluted flavonoids (concentration range 0.3–75 µg/mL) in liquid broth were incubated at 37 °C for 24 h. After incubation, MIC and MFC were determined. The lowest concentrations that were not inducing microscopically observed growth were considered as MIC. For microscopic determination of growth, we used inverted microscope Nikon Eclipse TS2 (Amsterdam, Netherland) and examined the fungal growth in the wells of 96-well microtiter plates compared to the control (untreated yeast cells). MFC values were determined as concentrations without visible growth after serial sub-cultivation of 10 µL of samples at 37 °C for 24 h. Ketoconazole and amphotericin B (SigmaAldrich, Darmstadt, Germany) were used as an antifungal control. The tested flavonoids were obtained from Extrasynthese, Rhone, France.

The next series relates to C. albicans 13/15. Description: Microdilution assay, MIC and MFC. The conditions noted are these: Candida albicans. The class given is cell-based.
Source text: as §1, §2

For another series, the system named is C. albicans 475/15. Description: Microdilution assay, MIC and MFC. Type of series: cell-based. The conditions noted are these: Candida albicans.
Source text: as §1, §2

For another series, the system named is C. albicans 527/14. Nature of the series: Microdilution assay, MIC and MFC. The class given is cell-based. Conditions: Candida albicans.
Source text: as §1, §2

Series [1] can be described thus: Cytotoxicity, Sulforhodamine B assay. Conditions: pig. As for the experimental part: Preparation of PLP2 cell line was performed with freshly harvested porcine liver supplied from a local slaughter house. Tissues from the liver were washed in Hank’s balanced salt solution comprising 100 U/mL penicillin and 100 μg/mL streptomycin and split into 1 × 1 mm^3 explants. Some of the prepared explants were set in 25 cm^2 tissue flasks in Dulbecco’s modified Eagle’s medium (DMEM) with 10% fetal bovine serum (FBS), 2 mM nonessential amino acids, 100 U/mL penicillin, and […] streptomycin, and incubation was conducted at 37 °C with 5% CO2 in a humidified atmosphere. The fresh medium was added every 2 days. Cultivation of the cells was further conducted with direct observation by the phase contrast microscope every 2–3 days. Before confluence was achieved, cells were subcultured and seeded in 96-well plates at a density of 1.0 × 10^4 cells per well and cultivated in DMEM supplemented with 10% FBS, 100 U/mL penicillin, and 100 μg/mL streptomycin. Previously described Sulforhodamine B assay was used for the determination of cytotoxicity. The obtained results were defined as GI50 values corresponding to the compound concentration that inhibits 50% of the net cell growth. Ellipticine was used as a positive control.

The next series relates to Candida albicans. Description: Microdilution assay, MIC (strain not named). Type of series: cell-based. The conditions noted are these: read-out: minimum inhibitory concentration (MIC).
Source text: as §1, §2

The subject of series [2] is C. albicans 475/15 biofilm formation. Description: Inhibition of biofilm formation (crystal violet). Conditions: for antibiofilm activity: MIC and subMICs; for inhibition of biofilm formation: compound applied at MIC. Type of series: cell-based, Candida albicans. As to the method: Potential of selected compounds to interfere with C. albicans 475/15 biofilm formation was investigated as previously described. Briefly, C. albicans 475/15 was incubated with serial dilution of the compounds (MIC and subMICs) in YPD medium, in 96-well microtiter plates with adhesive bottom (Sarstedt, Nümbrecht, Germany), at 37 °C for 24 h. After incubation, wells were washed twice with sterile PBS and methanol was added into each well. After fixation, methanol was discarded, and the plate was air dried. Formed biofilms were stained with 0.1% crystal violet (Bio-Merieux, Craponne, France) for 30 min. The plate was gently washed under the tap of water and air dried. The stain bound to the remaining biofilms was dissolved with ethanol (96%, Zorka, Šabac, Serbia). Absorbance was read on a Multiskan™ FC Microplate Photometer, Thermo Scientific™. The percentage of inhibition of biofilm formation was calculated by the formula:[(A620control − A620sample)/A620control] × 100

The subject of series [3] is CDR1. Description: Expression of CDR1 (qPCR). Type of series: cell-based, Candida albicans. The conditions noted are these: treatment with MIC. As for the experimental part: (§3) Total RNA was isolated as described by Sanglard et al. with some modifications. C. albicans 475/15 was grown with agitation at 30 °C in YEPD until OD540 = 0.4. C. albicans cells were incubated with MIC of compounds in YEPD at 30 °C with agitation for 30 min. Cells were centrifuged (4600 rpm, 4 °C for 5 min (Rotanata 460 R, Hettich, Tuttlingen, Germany)) and the pellet was resuspended in 300 µL of RNA buffer (0.1 M Tris-HCl pH 7.5, 0.1M LiCl, 10mM EDTA, 0.5% SDS). The pellet was homogenized with 200 µL of DEPC treated glass beads and 300 µL of Phenol:Chloroform:Isoamyl Alcohol (Sigma-Aldrich, Darmstadt, Germany) in Precellys Evolution tissue homogenizer (Bertion instruments, Montigny-le-Bretonneux, France) at 4500 rpm for 5 s. After centrifugation (14,000 rpm, 4 °C, 1 min (Universal 32 R, Hettich, Tuttlingen, Germany)) 200 µL of supernatant was vortexed with 250 µL of Phenol:Chloroform:Isoamyl Alcohol for 10 s. Samples were centrifuged (14,000 rpm, 4 °C, 1 min) and 200 µL of supernatant was transferred to new tubes, 400 µL of ice-cold 99% ethanol was added to each tube, and they were kept on dry ice for 10 min. Samples were centrifuged (14,000 rpm, 4 °C, 2 min), pellet was washed with ethanol (70%), left to dry at room temperature, after which it was dissolved in 50 µL of DEPC treated water. Nanodrop (ND-1000, Witec AG, Sursee, Switzerland) was used for determination of concentration and purity of samples. RNA was stored at −80°C.
(§4) Amount of 10 µg RNA was incubated with 5 µL of DNAse buffer and 1 µL of DNAse at 37 °C for 30 min (DNA-free™ DNA Removal Kit, Ambion, Bleiswijk, Netherlands). After addition of DNAse inactivation reagent tubes were kept at room temperature with occasional vortexing for 5 min. Samples were centrifuged (14,000 rpm, 4°C, 2 min) and the concentration and quality of supernatant were analyzed on Nanodrop (ND-1000, Witec AG, Sursee, Switzerland).
(§5) Synthesis of cDNA was done with a Transcriptor High Fidelity cDNA synthesis kit (Roche). RNA (1 µg) was incubated with 60 µM random hexamer primers, in 11.4 µL of total sample volume, at 65 °C for 10 min. The mixture of Transcriptase reaction buffer 5×, Deoxynucleotide mix, DTT, Protector RNAse inhibitor, and Transcriptor High Fidelity Reverse Transcriptase was added to each tube according to manufacturer instructions. Synthesis of cDNA was completed by incubating the mixture at 50 °C for 30 min and 85 °C for 5 min (Peqstar thermocycler, Peqlab, Erlangen, Germany).
(§6) Wells of MicroAmp Fast 96-Well Reaction plate ((0.1 mL), Applied biosystems, Waltham, MA, USA) were incubated with 10 µL of mixture (cDNA, 2× MasterMix, primers, probe (Table 3), and water). Analysis was performed in StepOnePlus Real Time PCR system with relative standard curve method. Expression levels of CDR1 and ERG11 were normalized to expression of ACT1.

For another series, the system named is C. albicans. Conditions: cited from earlier work.
A further series relates to C. albicans biofilm. Conditions: C. albicans CAD1 biofilm; cited from earlier work.
The next series has as its system ERG11. Description: Expression of ERG11 (qPCR). The class given is cell-based, Candida albicans. The conditions noted are these: treatment with MIC. As to the method:
as §3, §4, §5, §6

In series [4] the test system is CDR1. Conditions: identical assay, previously published; cited from earlier work.
Setting [5] is: C. albicans 10/15, mean ± SD of three replicates, read-out: MFC.
Where [6] appears, read: C. albicans 10/15, mean ± SD of three replicates, read-out: MIC.
The mark [7] stands for this setting: C. albicans 13/15, mean ± SD of three replicates, read-out: MFC.
Setting [8] is: C. albicans 13/15, mean ± SD of three replicates, read-out: MIC.
Where [9] appears, read: C. albicans 475/15, mean ± SD of three replicates, read-out: MFC.
Setting [10] is: C. albicans 475/15, mean ± SD of three replicates, read-out: MIC.
Where [11] appears, read: C. albicans 527/14, mean ± SD of three replicates, read-out: MFC.
The mark [12] stands for this setting: C. albicans 527/14, mean ± SD of three replicates, read-out: MIC.

Data on five molecules can be found in paper PMC7824033, “Flavones, Flavonols, and Glycosylated Derivatives—Impact on Candida albicans Growth and Virulence, Expression of CDR1 and ERG11, Cytotoxicity” (Pharmaceuticals, 2020).

≈ marks a conversion by molar mass, not a printed value. Entries after “also recorded” stand apart in the source; their conditions may differ. Where two headings read alike, the source gives them in different places.

With `C[C@@H]1[C@H](O)[C@@H](C)/C=C/C=C/C=C/C=C/C=C/C=C/C=C/[C@H](O[C@@H]2O[C@H](C)[C@@H](O)[C@H](N)[C@@H]2O)C[C@@H]2O[C@](O)(C[C@@H](O)C[C@@H](O)[C@H](O)CC[C@@H](O)C[C@@H](O)CC(=O)O[C@H]1C)C[C@H](O)[C@H]2C(=O)O` [Amphotericin B, amphotericin B, reference compound], the MFC in the series on C. albicans 10/15 (setting [5]), in the series on C. albicans 13/15 (setting [7]), with C. albicans 475/15 (setting [9]) and in the series on C. albicans 527/14 (setting [11]) was 1.25 ± 0.002 µg/mL (≈ 1.35 µM) throughout. Further, the MIC in the series on C. albicans 10/15 (setting [6]), in the series on C. albicans 13/15 (setting [8]), with C. albicans 475/15 (setting [10]) and with C. albicans 527/14 (setting [12]) was 0.63 ± 0.001 µg/mL (≈ 0.682 µM) each time.
`Cc1c2ccncc2c(C)c2c1[nH]c1ccccc12` [Ellipticin, Ellipticine, reference compound] showed a GI50 in [1] of 3.22 ± 0.2 µg/mL (≈ 13.1 µM).
`C[C@@H]1O[C@@H](Oc2c(-c3ccc(O)c(O)c3)oc3cc(O)cc(O)c3c2=O)[C@H](O)[C@H](O)[C@H]1O` [Quercitrin, quercitrin]: the minimal fungicidal concentration (MFC) in the series on C. albicans 10/15 (10/15), against C. albicans 13/15 (13/15), against C. albicans 475/15 (475/15) and against C. albicans 527/14 (527/14) was 75 ± 3 µg/mL (≈ 167 µM) each time. Further, the MIC against C. albicans 10/15 (10/15) is 37.5 ± 2 µg/mL (≈ 83.6 µM); in the series on C. albicans 13/15 (13/15) it was 37.5 ± 1 µg/mL (≈ 83.6 µM); against C. albicans 475/15 (475/15), 37.5 ± 2 µg/mL (≈ 83.6 µM); with C. albicans 527/14 (527/14), 37.5 ± 2 µg/mL (≈ 83.6 µM); in the series on Candida albicans, 37.5 µg/mL (≈ 83.6 µM); in the series on C. albicans (C. albicans ATCC 10231, ref 17), 100 µg/mL (≈ 223 µM). The MIC in the series with C. albicans (C. albicans CAD1, clinical isolate) is above 512 µg/mL. The figures for the “antibiofilm activity” value (in series [2]; with C. albicans biofilm) were “lowest potential to reduce biofilm formation” and “complete lack of activity”, respectively. The “inhibition of biofilm formation” value in series [2] is “less than 50%”. The “impact on CDR1 expression” value with CDR1 [3] was “downregulated”. Besides, the GI50 in series [1] is 73 ± 3 µg/mL (≈ 163 µM).
As for `C[C@@H]1O[C@@H](OC[C@H]2O[C@@H](Oc3c(-c4ccc(O)c(O)c4)oc4cc(O)cc(O)c4c3=O)[C@H](O)[C@@H](O)[C@@H]2O)[C@H](O)[C@H](O)[C@H]1O` [Rutin, rutin], the minimal fungicidal concentration (MFC) is 75 ± 2 µg/mL (≈ 123 µM) in the series with C. albicans 10/15 (setting [5]), 75 ± 2 µg/mL (≈ 123 µM) with C. albicans 13/15 (setting [7]), 75 ± 1 µg/mL (≈ 123 µM) in the series with C. albicans 475/15 (setting [9]) and 75 ± 1 µg/mL (≈ 123 µM) with C. albicans 527/14 (setting [11]). Also, the MIC with C. albicans 10/15 (setting [6]) is 37.5 ± 1 µg/mL (≈ 61.4 µM); in the series on C. albicans 13/15 (setting [8]), 37.5 ± 1 µg/mL (≈ 61.4 µM); with C. albicans 475/15 (setting [10]), 37.5 ± 1 µg/mL (≈ 61.4 µM); in the series on C. albicans 527/14 (setting [12]) it was 37.5 ± 1 µg/mL (≈ 61.4 µM); in the series on Candida albicans (C. albicans, this study, strain not given) it was 37.5 µg/mL (≈ 61.4 µM); with C. albicans (C. albicans ATCC 10231, ref 21), 40 µg/mL (≈ 65.5 µM). The MIC in the series with C. albicans (C. albicans ATCC 18804) was above 1000 µg/mL. For the same molecule, the “antibiofilm activity” value in series [2] is given as “lowest activity against biofilm formation”; in the series with C. albicans biofilm, “lack of C. albicans CAD1 antibiofilm activity”. In addition, the “inhibition of biofilm formation” value in [2] is “less than 50%”. Besides, the “impact on ERG11 expression (words)” value in the series on ERG11 is given as “lower expression levels; also recorded: negative impact; also recorded: lowering ERG11 expression”. In series [1], this molecule had a GI50 above 400 µg/mL. In addition, the “concentration necessary for growth inhibition” value in the series with C. albicans (C. albicans CA-1) is reported as 1000 µg/mL.
Take `O=c1c(O[C@@H]2O[C@H](CO)[C@@H](O)[C@H](O)[C@H]2O)c(-c2ccc(O)cc2)oc2cc(O)cc(O)c12` [astragalin]: the “impact on CDR1 expression” value with CDR1 [4] was “inhibitory impact”.
